{"source": "patent US12214036B2", "about": "“Combination therapy comprising AXL/MER and PD-1/PD-L1 inhibitors” (Incyte Corporation, priority 2020, dated 2025)", "key": {"AXL [1]": {"molecular_target": "T1, AXL (Homo sapiens, UniProt P30530)", "T1 construct": "recombinant phosphorylated forms of the kinase domains for AXL, MER and TYRO3; purchased ThermoFisher Scientific PV4275", "T1 sequence (P30530 536-807 limits assumed)": "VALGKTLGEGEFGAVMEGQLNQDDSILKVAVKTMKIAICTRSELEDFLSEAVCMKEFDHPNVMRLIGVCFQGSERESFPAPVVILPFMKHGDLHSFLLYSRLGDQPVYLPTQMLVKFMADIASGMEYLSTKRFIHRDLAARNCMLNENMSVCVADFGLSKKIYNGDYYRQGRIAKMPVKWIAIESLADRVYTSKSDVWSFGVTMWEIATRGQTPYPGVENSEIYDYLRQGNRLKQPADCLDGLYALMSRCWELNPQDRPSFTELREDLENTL", "assay": "TR-FRET kinase assay, phospho-AXL", "type": "biochemical", "settings": "average from multiple lots, n=18; read-out: IC50 against AXL", "experimental": "The biochemical potency of Compound 1 to inhibit the enzymatic activity of TAM family members was investigated by TR-FRET assays using recombinant phosphorylated forms of the kinase domains for AXL, MER and TYRO3.\nPhospho-AXL (pAXL), cMER and Tyro3 kinase activities were measured by time-resolved fluorescence energy transfer (TR-FRET) assays. Autophosphorylation of AXL was carried out before the kinase assay by incubating the recombinant AXL protein (ThermoFisher Scientific; #PV4275) in buffer containing 50 mM Tris, pH 7.5, 0.2 mg/mL AXL, 5 mM ATP, 20 mM MgCl2 and 2 mM dithiothreitol (DTT) at room temperature for 1 hour. The kinase assay buffer contained 50 mM HEPES, pH 7.5, 10 mM MgCl2, 1 mM EGTA, 0.01% NP-40 and 2 mM DTT. Enzyme solutions of 0.69 nM phospho-AXL, or 0.088 nM cMER (Carna Biosciences, Kobe, Japan; #08-108) or 0.137 nM TYRO3 (Life Technologies, PR7480A) were prepared in assay buffer. […] The plate was incubated for 30 minutes at room temperature, and homogenous time resolved fluorescence (HTRF) signal was measured on a PheraStar FS plate reader (BMG Labtech, Ortenberg, Germany). Percent inhibition was calculated for each concentration, and half maximal inhibitory concentration (IC50) value was generated from curve fitting with GraphPad Prism software (San Diego, Calif.)."}, "AXL [2]": {"molecular_target": "T2, AXL (Homo sapiens, UniProt P30530)", "T2 construct": "tumor cell lines expressing high levels of endogenous AXL; endogenous in cells; host or cells: H1299", "T2 sequence (P30530 26-894)": "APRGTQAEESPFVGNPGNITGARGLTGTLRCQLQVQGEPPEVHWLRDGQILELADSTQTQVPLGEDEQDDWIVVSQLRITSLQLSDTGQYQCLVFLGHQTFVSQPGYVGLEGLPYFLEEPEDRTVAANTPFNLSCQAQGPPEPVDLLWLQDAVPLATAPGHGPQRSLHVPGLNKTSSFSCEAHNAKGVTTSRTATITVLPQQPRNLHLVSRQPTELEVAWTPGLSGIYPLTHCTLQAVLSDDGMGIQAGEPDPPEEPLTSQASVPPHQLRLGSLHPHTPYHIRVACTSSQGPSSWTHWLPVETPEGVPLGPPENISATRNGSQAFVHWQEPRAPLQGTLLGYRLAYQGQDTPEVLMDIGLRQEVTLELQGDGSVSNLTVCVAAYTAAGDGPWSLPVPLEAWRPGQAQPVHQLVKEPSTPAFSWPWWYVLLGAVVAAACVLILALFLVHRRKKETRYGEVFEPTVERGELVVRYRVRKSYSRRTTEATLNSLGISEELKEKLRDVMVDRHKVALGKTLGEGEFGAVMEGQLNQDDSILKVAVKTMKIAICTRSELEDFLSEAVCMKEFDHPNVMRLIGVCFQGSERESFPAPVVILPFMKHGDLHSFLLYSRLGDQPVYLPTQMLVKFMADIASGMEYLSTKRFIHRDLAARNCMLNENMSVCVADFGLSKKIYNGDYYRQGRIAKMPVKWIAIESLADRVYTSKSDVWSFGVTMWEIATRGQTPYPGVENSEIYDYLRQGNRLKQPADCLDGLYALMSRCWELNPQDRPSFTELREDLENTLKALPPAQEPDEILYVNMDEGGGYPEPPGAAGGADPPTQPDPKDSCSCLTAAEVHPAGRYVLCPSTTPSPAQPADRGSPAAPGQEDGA", "assay": "pAXL inhibition assay in H1299 cells (ELISA)", "type": "cell-based", "settings": "rhGAS6 stimulation, N=19 (FIG. 2)", "experimental": "The ability of Compound 1 to modulate AXL activity was evaluated in tumor cell lines expressing high levels of endogenous AXL.\nH1299 cells were plated (30,000 cells/well) in 96-well tissue-culture plates (Costar, Corning Incorporated, Corning, N.Y.) and incubated overnight at 37° C. with 5% CO2. Compound 1 at an appropriate concentration was added and incubated for 1 hour at 37° C. with 5% CO2. rhGAS6 (R&D Systems, Minneapolis, Minn.; #885-GSB) was added at 1 μg/mL to each well, and plates were incubated at 37° C. with 5% CO2 for 15 minutes. Cells were harvested and lysed in 110 μL of ice-cold lysis buffer (Cell Signaling Technology, Danvers, Mass.; #9803) with protease and phosphatase inhibitors (ThermoFisher Scientific; #78446) for 1 hour on ice and stored at −80° C. for ELISA. ELISA plates were prepared by incubating Greiner lumitrac high-binding plates with 8 μg/mL of anti-AXL antibody (R&D Systems; MAB154) overnight at room temperature. The plates were washed and blocked with phosphate buffered saline (PBS) with 0.1% BSA. Cell lysates were loaded onto ELISA plates and incubated 2 hours at room temperature. […] The plates were gently shaken for 15 minutes at room temperature and read on the PheraStar (BMG Labtech). […]"}}}
{"smiles": "CC(C)C(=O)N1CCC(c2cc(-c3ccc(NC(=O)c4cn(C(C)C)c(=O)n(-c5ccccn5)c4=O)cc3)c3c(N)ncnn23)CC1", "note": "[Compound 1, N-(4-(4-Amino-7-(1-isobutyrylpiperidin-4-yl)pyrrolo[1,2-f][1,2,4]triazin-5-yl)phenyl)-1-isopropyl-2,4-dioxo-3-(pyridin-2-yl)-1,2,3,4-tetrahydropyrimidine-5-carboxamide]", "values": [{"measurement": "IC50", "setting": "AXL [1]", "result": "0.61 ± 0.31", "unit": "nM"}, {"measurement": "IC50", "setting": "AXL [2]", "result": "1.8 ± 0.63", "unit": "nM"}]}
